From patent US20230167458A1, “FORSKOLIN-INDUCIBLE PROMOTERS AND HYPOXIA-INDUCIBLE PROMOTERS” (ASKLEPIOS BIOPHARMACEUTICAL, INC., priority 2020, published 2023)

Legend:
[1] = tested on: CHO-GS-KSV1 cell line; assay: SEAP expression in stably transfected CHO-GS-KSV1, forskolin or NKH477 induction; assay type: cell-based, chinese hamster; details: for optimal inducer concentration to induce expression from RTV-019: stably transfected CHO-GS-KSV1/CHO-K1SV, SEAP after 24 hours, 2, 5, 9, 18 or 32 pM tested
Experimental: The forskolin-inducible promoters were then tested in a stably transfected CHO-GS-KSV1 cell line.
• CD-CHO media (Life technologies, CAT #10743029) • Corning 125 mL Polycarbonate Erlenmeyer Flask with Vent Cap (CAT #734-1885). • Gene Pulser® Electroporation Cuvettes, 0.4 cm gap (BioRad, CAT #165-2088) • Gene Pulser Xcell Total System (BioRad, CAT, #1652660) • GS-vector DNA ([…] in 100 μL TE buffer) linearised with Sca1 • Suspension cultures of CHOK1SV GS-KO host cells.
Cell suspensions of 6×10^5 cells per mL were incubated on an orbital shaker set at 8% CO2, 20% O2, 37° C., 85% relative humidity and 140 rpm overnight. 2.86×10^7 cells were centrifuged at 200 g for 3 minutes. Media was then aspirated and cell pellet resuspended in 2 mL fresh CD-CHO media to obtain a concentration of 1.43×10^7 cells per mL. 700 μL of cell suspension was added to each of two electroporation cuvettes each containing […] of linearised DNA in 100 μL of sterile TE buffer (Thermofisher, 12090015). Each cuvette was electroporated, delivering a single pulse of 300V, […] with resistance to infinity. Immediately after delivery of pulse electroplated cells were transferred to Erlenmeyer 125 mL flask containing 20 mL of CD-CHO media pre-warmed to 37° C. Electroporated cells from two cuvettes are combined into a single 125 mL flask to generate one pool of cells. Cells are cultured on an orbital shaker set at 8% CO2, 20% O2, 37° C., 85% relative humidity and 140 rpm. Cells are transferred to fresh CD-CHO media 24 hours after transfection and cell cultures monitored and given fresh CD-CHO media every 2-4 days. Usually after about 10-14 days cell numbers will be high enough to start passaging.
The transfected DNA was the pXC-17.4 expression vector (Lonza Biologics plc) where one of the promoter constructs (or a control promoter (CMV-IE) have been cloned upstream of the secreted alkaline phosphatase (SEAP) gene, which had been cloned into the multiple cloning site within the vector expression cassette. Promoters were closed into the pXC-17.4 vector using Gibson assembly. The pXC-17.4 expression vector is designed for making stable cell lines in the CHO-GSK1SV cell line as it contains the […] gene which has been knocked out of the cell line. Therefore, selection of cells in glutamine drop-out medium will select for cells that have stably integrated the plasmid.
The responsiveness of the RTV-019 promoter to different concentrations of forskolin and […] was tested in the stably transfected CHO-GS-KSV1 cell line. To this end, the stably transfected CHO-GS cells were seeded at 500,000 cells/ml and allowed to grow for 24 hrs. At this point the cells were induced by addition of the respective concentrations of forskolin and NKH477 and SEAP expression was measured as described below after 24 hours.
The promoter activity and inducibility of FMP-02, FORCYB-001, RTV-017, FORCSV-10, FOR-CMC-009, FLP-01 and RTV-019 were also tested in the stably transfected CHO-GS-KSV1 cell line. To this end, the stably transfected CHO-GS cells were seeded at 500,000 cells/ml and allowed to grow for 24 hrs. At this point the cells were exposed to […] forskolin or […] NKH477 for 24 hours. After this point, the SEAP activity in the medium was assessed as described below.
SEAP Reporter Gene Assay, chemiluminescent (Roche, CAT #11 779 842 001) was used to measure SEAP activity as per the manufacturer's protocol. All reagents and samples were fully pre-equilibrated at room temperature. Culture supernatant was collected from the stably transfected CHO-GS at the specific time points (0 h and 24 h). The supernatant was diluted 1:4 in dilution buffer and heat treated at 65° C. for 30 minutes. The heat-treated sample was then centrifuged for 30 s at maximum speed. 50 μl of the heat-treated sample was then added to 5 μl of inactivation buffer and incubated for 5 min at room temperature. 50 μl of substrate reagent was then added and incubated for 10 min at room temperature. […]

[2] = tested on: Huh7 human liver cell line; assay: Luciferase expression from promoters in pAAV vector (with ITRs) in Huh7, forskolin or NKH477 induction; set-up: fold induction with forskolin: dose or concentration left out as unconfirmed
Experimental: The forskolin-inducible promoters RTV-017, RTV-019 and FORCYB1 were then used to drive expression of luciferase in a pAAV vector in the Huh7 human liver cell line. […] This experiment was performed to investigate the effect of the Inverted Terminal Repeats (ITRs) on the activity of the promoters.
The cells were seeded, transfected and induced as described above. Luciferase expression was measured as described above. In this experiment, the cells were induced by using 20 pM forskolin or 7.2 pM of the water soluble derivative NKH477.

Molecule: C=C[C@@]1(C)CC(=O)[C@]2(O)[C@@]3(C)[C@@H](O)CCC(C)(C)[C@@H]3[C@H](O)[C@H](OC(C)=O)[C@@]2(C)O1 [Forskolin]
- optimal inducer concentration to induce expression from RTV-019 [1]: about 18 pM
- optimal inducer concentration to induce expression from RTV-019 ([1]; listed as forskolin): 18 µM

Molecule: C=C[C@@]1(C)CC(=O)[C@]2(O)[C@@]3(C)[C@@H](O)CCC(C)(C)[C@@H]3[C@H](OC(=O)CCN(C)C)[C@H](OC(C)=O)[C@@]2(C)O1.Cl [NKH477, NKH 477]
- potency as inducer of the promoters compared with forskolin ([1]; stable CHO-GS-KSV1, 7.2 µM NKH477 vs 20 µM forskolin): slightly more potent inducer
- optimal inducer concentration to induce expression from RTV-019 [1]: 8 µM
- optimal inducer concentration to induce expression from RTV-019 ([1]; listed as NKH 477): about 8 pM

B1: FORCYB1: synthetic forskolin-inducible promoter, SEQ ID NO: 45; 5× cAMPRE and 4× AP1 TFBS and YB-TATA (nucleic acid)
DNA: TGACGTCACGATTACCATTGACGTCACGATTACCATTGACGTCACGATTACCATTGACGTCACGATTACCATTGACGTCAGCGATTAAGATGACTCAGCGATTAAGATGACTCAGCGATTAAGATGACTCAGCGATTAAGATGACTCAGCGATTAATCCATATGCTCTAGAGGGTATATAATGGGGGCCACTAGTCTACTACCAGAAAGCTTGGTACCGAGCTCGGATCCAGCCACC
modifications: synthetic forskolin-inducible promoter
- fold induction with forskolin ([2]; Huh7): 65 fold
- luciferase activity without induction (background) ([2]; Huh7): low background activity
- fold induction with NKH477 ([2]; Huh7, 7.2 pM NKH477): 30 fold
- luciferase activity following induction ([2]; Huh7, or 7.2 pM NKH477): high activity
